Test system: imiquimod-induced psoriasis
Assay: Imiquimod-induced psoriasis (Th17 inflammation) model in mice, topical treatment once daily D7-D13: PASI, modified PASI, body weight, use of enrichment, TEWL
Assay type: in vivo
Design: key to Mean score use enrichment: 0 = no use of dental rolls to 4 = use of all 4; key to PASI Mean score values: sum of erythema, induration, peeling scores, each 0-3 (0 = none)
Settings: imiquimod-induced mice
Description: Thirty-six (36) female Balb/c mice are weighed and randomly divided into 9 groups (n=4) according to body weight on D1. For mice of native group 1 and tolerance groups 8 and 9, no induction of psoriasis is performed between D1 and D13. Psoriasis is induced in groups 2 to 7 by once daily topical application for 13 days (from day 1 to day 13) of 65 mg of Aldara™ cream (5.0% imiquimod) onto the shaved and epilated back of mice. Before the first treatment, a second randomization of mice of the 6 imiquimod-induced psoriasis groups is performed according to the severity of psoriasis (PASI), and also the body weight of mice. Starting on day 7 and until day 13, 100 mg of test formulations […] and 65 mg of vehicle (groups 1 and […]) are topically administered once daily for 7 consecutive days onto the shaved back skin of mice. Several measurements are taken during treatment period from day 7 to day 14: psoriasis index (PASI), body weight, use of enrichment and mortality. At the end of treatment period, TEWL is assessed, and blood and skin samples are collected. Histological analysis of skin samples is used for microscopic scoring of psoriasis and the determination of the thickness of parakeratosis and epidermis and blood analysis is used for assessing the level of proinflammatory biomarkers (cytokines assays). The effect of treatment of psoriasis induced mice with BETi formulations at the four dose levels are compared with Dermoval® cream containing 0.05% clobetasol propionate (reference) and vehicle (positive control) and also with healthy mice treated with vehicle (negative control).
PASI scoring takes into account the following 3 parameters: the presence of erythema on the skin, induration of the skin (thickening) and peeling of the skin at the area of the induction of psoriasis.
The presence of erythema on the skin at the area of induction of psoriasis with the following scoring grid: • 0=no or no more erythema on the skin, • 1=weak erythema on the skin, • 2=moderate erythema on the skin, • 3=important erythema on the skin.
The presence of induration of the skin at the area of induction of psoriasis with the following scoring grid: • 0=no or no more induration of the skin, • 1=weak induration of the skin, • 2=moderate induration of the skin, • 3=important induration of the skin.
The presence of peeling of the skin at the area of induction of psoriasis with the following scoring grid: • 0=no or no more dryness/peeling of the skin, • 1=weak dryness/peeling of the skin, • 2=moderate dryness/peeling of the skin, • 3=important dryness/peeling of the skin.
The sum of the mean scores of these 3 parameters result in the mean PASI score.
One of the issues with a steroid is that it causes skin thinning and continues to have an effect on no longer inflamed skin and the model set up and measurements above are not designed to reflect this negative effect. Therefore, a modified PASI (mPASI) is calculated in the same the manner as mean PASI score but excludes the scoring for induration (thickening of the skin).
Mice are weighed three times during the week of D1 to D7, and then daily during the week of D7 to D13, as well as on the day D14 when they are sacrificed. It should be noted that a characteristic body weight loss of mice is observed after the start of the induction of psoriasis, mainly during the first days following it. The body weight loss can reach between 10 to 15%.
For the duration of the experiment, dental rolls are used as enrichment and placed in each cage and replaced twice. Between D1 and D7, the number of dental rolls used by animals are determined twice in the morning, and are determined daily during D7 to D14, at the time of PASI or the tolerance assessment. The use of dental rolls is scored from 0=no use of dental rolls to 4=use of the 4 dental rolls. In the case where only half of a dental roll is used, a score of 0.5 is assigned. […]

SMILES: Cn1cc(-c2cccc(O)c2Oc2ccccc2)c2cc[nH]c2c1=O [BETi1]
- PASI Mean score values (D 7): 8.00
- Modified PASI Mean score values (D 7, listed as BETI1 0.01%): 5.75
- Modified PASI Mean score values (D 7, listed as BETI1 0.1%): 5.75
- Modified PASI Mean score values (D 7, listed as BETI1 1.0%): 5.50
- Mean score use enrichment (D 7, listed as BETi 0.001%): 4.00
- Mean score use enrichment (D 7, listed as BETi 0.01%): 3.50
- Mean score use enrichment (D 7, listed as BETi 0.1%): 3.00
- Modified PASI Mean score values (D 7, listed as BETi1 0.001%): 5.50
- Mean score use enrichment (D 7, listed as BETi 1.0%): 2.00
- Mean score use enrichment (D 8-D 14, listed as BETi 0.001%): 3.17
- Mean score use enrichment (D 8-D 14, listed as BETi 0.01%): 3.58
- Mean score use enrichment (D 8-D 14, listed as BETi 0.1%): 3.75
- Mean score use enrichment (D 8-D 14, listed as BETi 1.0%): 3.58
- Modified PASI Mean score values (D 8, listed as BETI1 0.1%): 6.00
- PASI Mean score values (D 8, listed as BETI1 0.1%): 8.50
- Modified PASI Mean score values (D 8, listed as BETI1 1.0%): 6.25
- PASI Mean score values (D 8, listed as BETI1 1.0%): 9.00
- Mean score use enrichment (D 8, listed as BETi 0.001%): 4.00
- Mean score use enrichment (D 8, listed as BETi 0.01%): 4.00
- Mean score use enrichment (D 8, listed as BETi 0.1%): 3.25
- Modified PASI Mean score values (D 8, listed as BETi1 0.001%): 7.00
- PASI Mean score values (D 8, listed as BETi1 0.001%): 10.00
- Modified PASI Mean score values (D 8, listed as BETi1 0.01%): 5.50
- PASI Mean score values (D 8, listed as BETi1 0.01%): 8.25
- Mean score use enrichment (D 8, listed as BETi 1.0%): 2.25
- Modified PASI Mean score values (D 9, listed as BETI1 0.1%): 4.50
- PASI Mean score values (D 9, listed as BETI1 0.1%): 7.25
- Modified PASI Mean score values (D 9, listed as BETI1 1.0%): 5.75
- PASI Mean score values (D 9, listed as BETI1 1.0%): 8.50
- Mean score use enrichment (D 9, listed as BETi 0.001%): 1.00
- Mean score use enrichment (D 9, listed as BETi 0.01%): 2.25
- Mean score use enrichment (D 9, listed as BETi 0.1%): 2.75
- Modified PASI Mean score values (D 9, listed as BETi1 0.001%): 6.25
- PASI Mean score values (D 9, listed as BETi1 0.001%): 9.25
- Modified PASI Mean score values (D 9, listed as BETi1 0.01%): 4.00
- PASI Mean score values (D 9, listed as BETi1 0.01%): 6.75
- Mean score use enrichment (D 9, listed as BETi 1.0%): 2.00
- Modified PASI Mean score values (D 10, listed as BETI1 0.1%): 2.75
- PASI Mean score values (D 10, listed as BETI1 0.1%): 4.50
- Modified PASI Mean score values (D 10, listed as BETI1 1.0%): 4.75
- PASI Mean score values (D 10, listed as BETI1 1.0%): 7.25
- Mean score use enrichment (D 10, listed as BETi 0.001%): 2.25
- Mean score use enrichment (D 10, listed as BETi 0.01%): 3.25
- Mean score use enrichment (D 10, listed as BETi 0.1%): 3.75
- Modified PASI Mean score values (D 10, listed as BETi1 0.001%): 5.50
- PASI Mean score values (D 10, listed as BETi1 0.001%): 8.50
- Modified PASI Mean score values (D 10, listed as BETi1 0.01%): 3.50
- PASI Mean score values (D 10, listed as BETi1 0.01%): 6.00
- Mean score use enrichment (D 10, listed as BETi 1.0%): 3.00
- Modified PASI Mean score values (D 11, listed as BETI1 0.1%): 1.25
- PASI Mean score values (D 11, listed as BETI1 0.1%): 2.75
- Modified PASI Mean score values (D 11, listed as BETI1 1.0%): 3.50
- PASI Mean score values (D 11, listed as BETI1 1.0%): 5.50
- Mean score use enrichment (D 11, listed as BETi 0.001%): 3.75
- Mean score use enrichment (D 11, listed as BETi 0.01%): 4.00
- Mean score use enrichment (D 11, listed as BETi 0.1%): 4.00
- Modified PASI Mean score values (D 11, listed as BETi1 0.001%): 5.50
- PASI Mean score values (D 11, listed as BETi1 0.001%): 8.00
- Mean body weights (D 11, listed as BETi1 0.01%): 17.93
- Modified PASI Mean score values (D 11, listed as BETi1 0.01%): 2.75
- PASI Mean score values (D 11, listed as BETi1 0.01%): 5.00
- Mean score use enrichment (D 11, listed as BETi 1.0%): 3.50
- Modified PASI Mean score values (D 12, listed as BETI1 0.1%): 0.50
- PASI Mean score values (D 12, listed as BETI1 0.1%): 1.00
- Modified PASI Mean score values (D 12, listed as BETI1 1.0%): 4.25
- PASI Mean score values (D 12, listed as BETI1 1.0%): 7.25
- Mean score use enrichment (D 12, listed as BETi 0.001%): 4.00
- Mean score use enrichment (D 12, listed as BETi 0.01%): 4.00
- Mean score use enrichment (D 12, listed as BETi 0.1%): 4.00
- Modified PASI Mean score values (D 12, listed as BETi1 0.001%): 4.50
- PASI Mean score values (D 12, listed as BETi1 0.001%): 6.00
- Modified PASI Mean score values (D 12, listed as BETi1 0.01%): 1.00
- PASI Mean score values (D 12, listed as BETi1 0.01%): 2.25
- Mean score use enrichment (D 12, listed as BETi 1.0%): 2.25
- Modified PASI Mean score values (D 13, listed as BETI1 0.1%): 0.50
- PASI Mean score values (D 13, listed as BETI1 0.1%): 1.00
- Modified PASI Mean score values (D 13, listed as BETI1 1.0%): 3.25
- PASI Mean score values (D 13, listed as BETI1 1.0%): 5.25
- Mean score use enrichment (D 13, listed as BETi 0.001%): 4.00
- Mean score use enrichment (D 13, listed as BETi 0.01%): 4.00
- Mean score use enrichment (D 13, listed as BETi 0.1%): 4.00
- Modified PASI Mean score values (D 13, listed as BETi1 0.001%): 4.00
- PASI Mean score values (D 13, listed as BETi1 0.001%): 5.50
- Modified PASI Mean score values (D 13, listed as BETi1 0.01%): 1.75
- PASI Mean score values (D 13, listed as BETi1 0.01%): 2.75
- Mean score use enrichment (D 13, listed as BETi 1.0%): 2.75
- Mean score use enrichment (D 14): 4.00
- Mean TEWL score values (D14, Lower back, listed as BETi1 1.0%): 30.63 g/h/m2
- Mean TEWL score values (D14, Lower back, listed as BETi10.001%): 42.11 g/h/m2
- Mean TEWL score values (D14, Lower back, listed as BETi10.01%): 57.25 g/h/m2
- Mean TEWL score values (D14, Lower back, listed as BETi10.1%): 39.27 g/h/m2
- Mean TEWL score values (D14, Mean, listed as BETi1 1.0%): 38.60 g/h/m2
- Mean TEWL score values (D14, Mean, listed as BETi10.001%): 40.35 g/h/m2
- Mean TEWL score values (D14, Mean, listed as BETi10.01%): 39.55 g/h/m2
- Mean TEWL score values (D14, Mean, listed as BETi10.1%): 27.14 g/h/m2
- Mean TEWL score values (D14, Mid back, listed as BETi1 1.0%): 40.80 g/h/m2
- Mean TEWL score values (D14, Mid back, listed as BETi10.001%): 41.26 g/h/m2
- Mean TEWL score values (D14, Mid back, listed as BETi10.01%): 34.53 g/h/m2
- Mean TEWL score values (D14, Mid back, listed as BETi10.1%): 24.04 g/h/m2
- Mean TEWL score values (D14, Upper back, listed as BETi1 1.0%): 44.36 g/h/m2
- Mean TEWL score values (D14, Upper back, listed as BETi10.001%): 37.67 g/h/m2
- Mean TEWL score values (D14, Upper back, listed as BETi10.01%): 26.87 g/h/m2
- Mean TEWL score values (D14, Upper back, listed as BETi10.1%): 18.11 g/h/m2
- Modified PASI Mean score values (D 14, listed as BETI1 0.1%): 0.50
- PASI Mean score values (D 14, listed as BETI1 0.1%): 1.25
- Modified PASI Mean score values (D 14, listed as BETI1 1.0%): 3.50
- PASI Mean score values (D 14, listed as BETI1 1.0%): 5.00
- Modified PASI Mean score values (D 14, listed as BETi1 0.001%): 3.75
- PASI Mean score values (D 14, listed as BETi1 0.001%): 5.50
- Modified PASI Mean score values (D 14, listed as BETi1 0.01%): 1.50
- PASI Mean score values (D 14, listed as BETi1 0.01%): 2.25
- clinical signs (end of treatment): substantial resolution of clinical signs
- dermal tolerance (topical 7 days): no evidence of dermal tolerance issues
- reduction in mPASI score (composite inflammation severity score) relative to vehicle control group (treatment Day 7): 94%
- Absolute Body Weight Change from day 1 to day 14, D14 − D1, individual mouse (listed as BETi1 -0.001%): 1.58

— patent US20250339409A1, “USES OF PAN BET INHIBITORS” (VYNE THERAPEUTICS INC., priority 2021, published 2025)
